Measured values from patent US7208506B2, “Heteroarylethenyl derivatives, their manufacture and use as pharmaceutical agents” (Hoffmann-La Roche Inc., priority 2005, dated 2007).
Structures can show the parent of a compound that is named as a salt.

Tested on: HCT 116 cells
Experiment: CellTiter-Glo Luminescent Cell Viability Assay in HCT 116 cells
Format: cell-based
Conditions: Homo sapiens, HCT-116, 120 h, HCT 116 human colon carcinoma cell viability, 120 h (5 days) incubation, 10 concentrations 30 μM to 0.0015 μM, triplicate
Description: CellTiter-Glo™ Assay in HCT 116 Cells
The CellTiter-Glo™ Luminescent Cell Viability Assay (Promega) is a homogeneous method of determining the number of viable cells in culture based on quantitation of the ATP present, which signals the presence of metabolically active cells.
HCT 116 cells (human colon carcinoma, ATCC-No. CCl1-247) were cultivated in RPMI 1640 medium with GlutaMAX™ I (Invitrogen, Cat-No. 61870-010), 2.5% Fetal Calf Serum (FCS, Sigma Cat-No. F4135 (FBS)); 100 Units/ml penicillin/100 μg/ml streptomycin (=Pen/Strep from Invitrogen Cat. No. 15140). For the assay the cells were seeded in 384 well plates, 1000 cells per well, in the same medium. The next day the test compounds were added in various concentrations ranging from 30 μM to 0.0015 μM (10 concentrations, 1:3 diluted). After 5 days the CellTiter-Glo™ assay was done according to the instructions of the manufacturer (CellTiter-Glo™ Luminescent Cell Viability Assay, from Promega). In brief: the cell-plate was equilibrated to room temperature for approximately 30 minutes and than the CellTiter-Glo™ reagent was added. The contents were carefully mixed for 15 minutes to induce cell lysis. After 45 minutes the luminescent signal was measured in Victor 2, (scanning multiwell spectrophotometer, Wallac).
Medium: RPMI 1640 with GlutaMAX™ I (Invitrogen, Cat-Nr. 61870), 5% FCS (Sigma Cat.-No. F4135), Pen/Strep (Invitrogen, Cat No. 15140).
HCT116 (ATCC-No. CCl-247): 1000 cells in 60 μl per well of 384 well plate (Greiner 781098, μClear-plate white)
After seeding incubate plates 24 h at 37° C., 5% CO2
2nd. Day: Induction (Treatment with Compounds, 10 Concentrations):
In order to achieve a final concentration of 30 μM as highest concentration 3,5 μl of 10 mM compound stock solution were added directly to 163 μl media. Then step e) of the dilution procedure described below, was followed.
In order to achieve the second highest to the lowest concentrations, a serial dilution with dilution steps of 1:3 was followed according to the procedure (a–e) as described here below: • a) for the second highest concentration add 10 μl of 10 mM stock solution of compound to 20 μl dimethylsulfoxide (DMSO) • b) dilute 8×1:3 (always 10 μl to 20 μl DMSO) in this DMSO dilution row (results in 9 wells with concentrations from 3333.3 μM to 0.51 μM) • c) dilute each concentration 1: 47.6 (3.5 μl compound dilution to 163 μl media) • e) add 10 μl of every concentration to 60 μl media in the cell plate resulting in final concentration of DMSO : 0.3% in every well and resulting in 10 final concentration of compounds ranging from 30 μM to 0.0015 μM. • Each compound is tested in triplicate. • Incubate 120 h (5 days) at 37° C., 5% CO2
Analysis: • Add 30 μl CellTiter-Glo™ Reagent per well, • shake 15 minutes at room temperature • incubate further 45 minutes at room temperature without shaking
Measurement: • Victor 2 scanning multiwell spectrophotometer (Wallac), Luminescence mode (0.5 sec/read, 477 nm) • Determine IC50 using a non-linear curve fit (XLfit software (ID Business Solution Ltd., Guilford, Surrey, UK))

| IC50 [µM] | Compound |
| --- | --- |
| 0.5 to 15 | O=C(NS(=O)(=O)/C=C/c1ccsc1)c1ccc(F)cc1Cl [Example 1-3, (E)-2-Thiophen-3-yl-ethenesulfonic acid 2-chloro-4-fluoro-benzoylamide; sodium salt] |
| 0.5 to 15 | O=C(NS(=O)(=O)/C=C/c1ccsc1)c1ccc(F)cc1C(F)(F)F [Example 1-5, (E)-2-Thiophen-3-yl-ethenesulfonic acid 4-fluoro-2-trifluoromethyl-benzoylamide; sodium salt] |
| 0.5 to 15 | O=C(NS(=O)(=O)/C=C/c1ccsc1)c1ccc(C(F)(F)F)cc1C(F)(F)F [Example 1-6, (E)-2-Thiophen-3-yl-ethenesulfonic acid 2,4-bis-trifluoromethyl-benzoylamide; sodium salt] |
| 0.5 to 15 | Cc1ccc(/C=C/S(=O)(=O)NC(=O)c2ccc(Cl)cc2Cl)s1 [Example 1-8, (E)-2-(5-Methyl-thiophen-2-yl)-ethenesulfonic acid 2,4-dichloro-benzoylamide] |
| 0.5 to 15 | Cc1ccsc1/C=C/S(=O)(=O)NC(=O)c1ccc(Cl)cc1Cl [Example 1-9, (E)-2-(3-Methyl-thiophen-2-yl)-ethenesulfonic acid 2,4-dichloro-benzoylamide] |
| 0.5 to 15 | Cc1csc(/C=C/S(=O)(=O)NC(=O)c2ccc(Cl)cc2Cl)c1 [Example 1-10, (E)-2-(4-Methyl-thiophen-2-yl)-ethenesulfonic acid 2,4-dichloro-benzoylamide] |
| 0.5 to 15 | Cc1noc(C)c1/C=C/S(=O)(=O)NC(=O)c1ccc(Cl)cc1Cl [Example 1-11, (E)-2-(3,5-Dimethyl-isoxazol-4-yl)-ethenesulfonic acid 2,4-dichloro-benzoylamide; sodium salt] |
| 3.41 | O=C(NS(=O)(=O)/C=C/c1cccnc1)c1ccc(Cl)cc1Cl [Example 2-1, (E)-2-Pyridin-3-yl-ethenesulfonic acid 2,4-dichloro-benzoylamide; sodium salt] |
| 0.5 to 15 | O=C(NS(=O)(=O)/C=C/c1ccccn1)c1ccc(Cl)cc1Cl [Example 2-2, (E)-2-Pyridin-2-yl-ethenesulfonic acid 2,4-dichloro-benzoylamide; sodium salt] |
| 5.02 | COc1ccc(/C=C/S(=O)(=O)NC(=O)c2ccc(Cl)cc2Cl)cn1 [Example 2-4, (E)-2-(6-Methoxy-pyridin-3-yl)-ethenesulfonic acid 2,4-dichloro-benzoylamide; sodium salt] |
| 0.5 to 15 | O=C(NS(=O)(=O)/C=C/c1ccccn1)c1ccc(F)cc1Cl [Example 2-6, (E)-2-Pyridin-2-yl-ethenesulfonic acid 2-chloro-4-fluoro-benzoylamide; sodium salt] |
| 0.5 to 15 | O=C(NS(=O)(=O)/C=C/c1ccccn1)c1ccc(F)cc1C(F)(F)F [Example 2-7, (E)-2-Pyridin-2-yl-ethenesulfonic acid 4-fluoro-2-trifluoromethyl-benzoylamide; sodium salt] |
| 0.5 to 15 | O=C(NS(=O)(=O)/C=C/c1cccnc1)c1ccc(F)cc1C(F)(F)F [Example 2-9, (E)-2-Pyridin-3-yl-ethenesulfonic acid 4-fluoro-2-trifluoromethyl-benzoylamide; sodium salt] |
| 0.5 to 15 | COc1ccc(/C=C/S(=O)(=O)NC(=O)c2ccc(F)cc2Cl)cn1 [Example 2-10, (E)-2-(6-Methoxy-pyridin-3-yl)-ethenesulfonic acid 2-chloro-4-fluoro-benzoylamide; sodium salt] |
| 0.5 to 15 | O=C(NS(=O)(=O)/C=C/c1cccnc1)c1ccc(C(F)(F)F)cc1C(F)(F)F [Example 2-14, (E)-2-Pyridin-3-yl-ethenesulfonic acid 2,4-bis-trifluoromethyl-benzoylamide; sodium salt] |
| 0.5 to 15 | O=C(NS(=O)(=O)/C=C/c1cncnc1)c1ccc(Cl)cc1Cl [Example 2-18, (E)-2-Pyrimidin-5-yl-ethenesulfonic acid 2,4-dichloro-benzoylamide; sodium salt] |

| IC50 [µM] | Compound |
| --- | --- |
| 0.5 to 15 | O=C(NS(=O)(=O)/C=C/c1ccc(Cl)nc1)c1ccc(Cl)cc1Cl [Example 2-20, (E)-2-(6-Chloro-pyridin-3-yl)-ethenesulfonic acid 2,4-dichloro-benzoylamide; sodium salt] |
| 0.5 to 15 | O=C(NS(=O)(=O)/C=C/c1cccnc1Cl)c1ccc(Cl)cc1Cl [Example 2-21, (E)-2-(2-Chloro-pyridin-3-yl)-ethenesulfonic acid 2,4-dichloro-benzoylamide; sodium salt] |
| 0.5 to 15 | O=C(NS(=O)(=O)/C=C/c1nccs1)c1ccc(Cl)cc1Cl [Example 2-22, (E)-2-Thiazol-2-yl-ethenesulfonic acid 2,4-dichloro-benzoylamide; sodium salt] |
| 0.5 to 15 | O=C(NS(=O)(=O)/C=C/c1sccc1Br)c1ccc(Cl)cc1Cl [Example 2-24, (E)-2-(3-Bromo-thiophen-2-yl)-ethenesulfonic acid 2,4-dichloro-benzoylamide; sodium salt] |
| 0.5 to 15 | Cc1cccc(/C=C/S(=O)(=O)NC(=O)c2ccc(F)cc2Cl)n1 [Example 2-25, (E)-2-(6-Methyl-pyridin-2-yl)-ethenesulfonic acid 2-chloro-4-fluoro-benzoylamide; sodium salt] |
| 0.5 to 15 | O=C(NS(=O)(=O)/C=C/c1csc2ccccc12)c1ccc(F)cc1Cl [Example 2-26, (E)-2-Benzo[b]thiophen-3-yl-ethenesulfonic acid 2-chloro-4-fluoro-benzoylamide; sodium salt] |
| 0.5 to 15 | O=C(NS(=O)(=O)/C=C/c1csc2ccccc12)c1ccc(Cl)cc1Cl [Example 2-27, (E)-2-Benzo[b]thiophen-3-yl-ethenesulfonic acid 2,4-dichloro-benzoylamide; sodium salt] |
| 0.5 to 15 | O=C(NS(=O)(=O)/C=C/c1csc2ccccc12)c1ccc(F)cc1C(F)(F)F [Example 2-28, (E)-2-Benzo[b]thiophen-3-yl-ethenesulfonic acid 4-fluoro-2-trifluoromethyl-benzoylamide; sodium salt] |
| 0.5 to 15 | O=C(NS(=O)(=O)/C=C/c1csc2ccccc12)c1ccc(C(F)(F)F)cc1C(F)(F)F [Example 2-29, (E)-2-Benzo[b]thiophen-3-yl-ethenesulfonic acid 2,4-ditrifluoromethyl-benzoylamide; sodium salt] |
| 0.5 to 15 | COc1cc(Cl)ccc1C(=O)NS(=O)(=O)/C=C/c1cccs1 [Example 3-1, (E)-2-Thiophen-2-yl-ethenesulfonic acid 4-chloro-2-methoxy-benzoylamide; sodium salt] |
| 0.5 to 15 | Cc1cc(Cl)ccc1C(=O)NS(=O)(=O)/C=C/c1ccsc1 [Example 3-2, (E)-2-Thiophen-3-yl-ethenesulfonic acid 4-chloro-2-methyl-benzoylamide; sodium salt] |
| 0.5 to 15 | COc1cc(Cl)ccc1C(=O)NS(=O)(=O)/C=C/c1ccsc1 [Example 3-4, (E)-2-Thiophen-3-yl-ethenesulfonic acid 4-chloro-2-methoxy-benzoylamide; sodium salt] |
| 0.5 to 15 | Cc1cc(Br)ccc1C(=O)NS(=O)(=O)/C=C/c1ccsc1 [Example 3-5, (E)-2-Thiophen-3-yl-ethenesulfonic acid 4-bromo-2-methyl-benzoylamide; sodium salt] |
| 0.5 to 15 | Cc1ccc(C(=O)NS(=O)(=O)/C=C/c2ccsc2)c(Br)c1 [Example 3-7, (E)-2-Thiophen-3-yl-ethenesulfonic acid 2-bromo-4-methyl-benzoylamide; sodium salt] |
| 0.5 to 15 | O=C(NS(=O)(=O)/C=C/c1ccsc1)c1ccc(F)cc1Br [Example 3-9, (E)-2-Thiophen-3-yl-ethenesulfonic acid 2-bromo-4-fluoro-benzoylamide; sodium salt] |
| 0.5 to 15 | O=C(NS(=O)(=O)/C=C/c1ccsc1)c1ccc(Br)cc1Cl [Example 3-11, (E)-2-Thiophen-3-yl-ethenesulfonic acid 4-bromo-2-chloro-benzoylamide; sodium salt] |
